Results taken from patent publication US20060111357A1, “Quinoline compounds for use in mch receptor related disorders” (priority 2003, published 2006).
Where two headings read alike, the source gives them in different places.

How the values were obtained:
[1] = target: T1, human MCH-1 receptor (Homo sapiens, UniProt Q99705); test: MCH receptor binding ([125I]-MCH competition binding / SPA)
T1 construct: expressed in transfected cells; host or cells: transiently transfected COS-7 cells or stably transfected CHO cells (pcDNA3.1)
Protocol: (§1) Transfections and Tissue Culture—The cDNA encoding the human MCH-1 receptor was cloned from a human brain cDNA library and cloned into the eukaryotic expression vector pcDNA3.1 (Invitrogen). Assays were performed on transiently transfected COS-7 cells or stably transfected CHO (Chinese Hamster Ovary) cells, expressing the human MCH-1 receptor in pcDNA3.1. […] Clones were screened by a MCH receptor radioligand binding assay (as described below).
Radioligand Binding Assay—Transiently transfected COS-7 cells or stably transfected CHO cells, expressing human MCH-1 receptor were seeded in multi-well culture plates one day before the assay. The number of cells per well was determined by the apparent expression efficiency of the cell line aiming at 5-10% binding of the added radioligand. […] The assay was performed in duplicate. Nonspecific binding was determined as the binding in the presence of 1 μM MCH (Bachem). Binding data were analyzed and IC50 values determined by non-linear regression using the Prism software (GraphPad software, San Diego). Values of the dissociation and inhibition constants (Kd and Ki) were estimated from competition binding using the equations Kd=IC50-L and Ki=IC50/(1+L/Kd), respectively, where L is the concentration of radioligand.
Membranes and beads were pre-incubated for 20 min. […] Moreover, CHO-K1 membranes expressing the hMCH receptor were purchased from Euroscreen (ES-370-M) and a final concentration of 2 μg/well were used. Binding data were analyzed and IC50 values determined by non-linear regression using the Prism software (GraphPad software, San Diego). Values of the inhibition constant (Ki) were estimated from competition binding using the equation Ki=IC50/(1+L/Kd), where L and Kd are the concentration and affinity constant, respectively, of the radioligand.

[2] = target: T1, human MCH-1 receptor; test: Phosphatidylinositol (IP3) assay, MCH-stimulated turnover; type: cell-based
Protocol: as §1
Phosphatidylinositol assay—To assay phosphatidylinositol turnover, transiently transfected COS-7 cells or stably transfected CHO cells, expressing human MCH-1 receptor (2×10^5 cells/well) were incubated for 24 h with 5 μCi of (^3H]-myo-inositol (Amersham Pharmacia Biotech) in 0.5 ml inositol-free culture medium. Cells were washed twice in PI-buffer: 20 mM HEPES, pH 7.4, supplemented with 140 mM NaCl, 5 mM KCl, 1 mM MgSO4, 1 mM CaCl2, 10 mM glucose, 0.02% (w/v) bovine serum; and were incubated in 0.5 ml PI-buffer supplemented with 10 mM LiCl at 37° C. for 45 min.
Phosphatidylinositol turnover was stimulated by submaximal concentrations of MCH, i.e. 10 nM in the presence of increasing amounts of ligand. The ligand was added 5 min. before adding the agonist (MCH). Cells were extracted with 10 mM ice-cold Formic acid, and the generated [^3H]-inositol phosphates were purified on Bio-Rad AG 1-X8 anion-exchange resin. Determinations were made in duplicate. PI data were analyzed and IC50 values determined by non-linear regression using the Prism software (GraphPad software, San Diego).

[3] = target: T2, HERG channels (Homo sapiens, UniProt Q12809)
[4] = risk of Torsades de Pointes, from www.torsades.org; cited from earlier work
[5] = target: T2, HERG channels; test: HERG selectivity method, whole-cell patch-clamp recordings
[6] = stimulated by 10 nM MCH, read-out: IP3 IC50
Wherever Risk Group is given: key: 1: Drugs that are generally accepted by authorities to have a risk of Torsades de Pointes (TdP); 2: Drugs that in some reports may be associated with TdP but at this time lack substantial evidence; 4: Drugs that, in some reports, have been weakly associated with TdP but that when used in usual dosages are unlikely to be a risk for TdP.

T1 sequence (Q99705 whole entry): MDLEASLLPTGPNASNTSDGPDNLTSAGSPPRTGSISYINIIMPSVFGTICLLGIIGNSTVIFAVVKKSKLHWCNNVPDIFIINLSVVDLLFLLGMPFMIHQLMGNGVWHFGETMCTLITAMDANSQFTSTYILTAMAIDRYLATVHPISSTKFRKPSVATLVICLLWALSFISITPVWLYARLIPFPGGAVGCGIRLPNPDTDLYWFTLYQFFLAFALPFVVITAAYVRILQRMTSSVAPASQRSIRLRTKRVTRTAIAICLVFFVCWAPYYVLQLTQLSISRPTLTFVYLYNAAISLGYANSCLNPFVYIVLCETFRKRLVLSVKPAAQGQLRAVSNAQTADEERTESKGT
T2 sequence (Q12809 whole entry): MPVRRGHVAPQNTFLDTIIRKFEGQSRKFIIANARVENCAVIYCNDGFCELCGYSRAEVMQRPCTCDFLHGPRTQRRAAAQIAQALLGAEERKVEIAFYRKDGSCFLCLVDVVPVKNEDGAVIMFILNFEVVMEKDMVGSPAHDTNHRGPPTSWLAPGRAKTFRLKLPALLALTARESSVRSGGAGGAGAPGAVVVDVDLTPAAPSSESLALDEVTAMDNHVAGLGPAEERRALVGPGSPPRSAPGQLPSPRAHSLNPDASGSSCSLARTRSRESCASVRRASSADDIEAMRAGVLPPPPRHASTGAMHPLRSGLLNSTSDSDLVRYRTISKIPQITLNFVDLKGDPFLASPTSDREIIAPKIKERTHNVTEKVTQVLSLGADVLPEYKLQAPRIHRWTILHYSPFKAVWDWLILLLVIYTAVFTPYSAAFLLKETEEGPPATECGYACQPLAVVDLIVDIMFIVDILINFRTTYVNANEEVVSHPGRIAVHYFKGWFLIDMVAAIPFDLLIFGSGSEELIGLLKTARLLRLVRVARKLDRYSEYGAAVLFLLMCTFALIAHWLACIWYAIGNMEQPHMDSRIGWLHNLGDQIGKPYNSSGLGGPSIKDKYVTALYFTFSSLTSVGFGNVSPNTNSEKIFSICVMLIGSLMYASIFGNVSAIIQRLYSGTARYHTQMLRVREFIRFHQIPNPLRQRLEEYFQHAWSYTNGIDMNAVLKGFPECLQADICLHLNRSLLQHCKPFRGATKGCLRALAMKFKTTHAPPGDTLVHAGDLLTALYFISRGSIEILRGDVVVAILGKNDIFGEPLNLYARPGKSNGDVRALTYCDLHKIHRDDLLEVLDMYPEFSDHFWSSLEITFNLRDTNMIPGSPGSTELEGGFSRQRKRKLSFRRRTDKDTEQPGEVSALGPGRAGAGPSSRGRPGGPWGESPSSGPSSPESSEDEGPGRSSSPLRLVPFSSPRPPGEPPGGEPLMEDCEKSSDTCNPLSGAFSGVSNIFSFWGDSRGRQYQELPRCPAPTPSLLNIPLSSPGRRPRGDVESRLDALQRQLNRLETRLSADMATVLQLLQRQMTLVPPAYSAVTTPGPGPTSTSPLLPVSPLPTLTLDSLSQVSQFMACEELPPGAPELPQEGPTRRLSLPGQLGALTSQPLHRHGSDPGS

Row | Compound | IC50 [1] | IC50 [2, 6] | Risk Group [4] | also measured
1 | Cc1cc(N2CCN(C)CC2)nc2ccc(NC(=O)C(C)Oc3ccc(Cl)cc3Cl)cc12 (stereo not drawn) | 0.28 µM | 2 µM | – | –
2 | CC(C)NCC(O)c1ccc(NS(C)(=O)=O)cc1 (racemic) [(±) sotalol] | – | – | 1 | Ki in μM ± S.D. (#) [3]: No effect at 100 (5)
3 | CCCCc1oc2ccccc2c1C(=O)c1cc(I)c(OCCN(CC)CC)c(I)c1 [Amiodarone] | – | – | 1 | –
4 | CN(C)CCC=C1c2ccccc2CCc2ccccc21 [Amitriptyline] | – | – | 4 | –
5 | Clc1ccc2c(c1)C(N1CCNCC1)=Nc1ccccc1O2 [Amoxapine] | – | – | 4 | –
6 | CC(C)COCC(CN(Cc1ccccc1)c1ccccc1)N1CCCC1 (stereo not drawn) [Bepridil] | – | – | 1 | –
7 | CN1CCN(C(c2ccccc2)c2ccc(Cl)cc2)CC1 (stereo not drawn) [Chlorcyclizine] | – | – | – | Ki [5]: 4 ± 1.4 µM
8 | CN(C)CCCN1c2ccccc2Sc2ccc(Cl)cc21 [Chlorpromazine] | – | – | 1 | –
9 | CN1CCN(CC/C=C2/c3ccccc3Sc3ccc(S(=O)(=O)N(C)C)cc32)CC1 [Cis-Thiothixene] | – | – | – | Ki ([5]; read-out: Ki in μM ± S.D. (#), HEK 293 cells stably expressing HERG+KCNE1, tail-current block, room temperature, Ki=koff/kon): 8.6 ± 2.7 µM
10 | CNCCCN1c2ccccc2CCc2ccccc21 [Desipramine] | – | – | 4 | –
11 | CN(C)CCC=C1c2ccccc2COc2ccccc21 [Doxepine] | – | – | 4 | –
12 | Cc1cc(N2CCN(C)CC2)nc2ccc(NC(=O)/C=C/c3ccc(OC(F)(F)F)cc3)cc12 [Example 16, (E)-N-[4-Methyl-2-(4-methyl-piperazin-1-yl)-quinolin-6-yl]-3-(4-trifluoromethoxy-phenyl)-acrylamide] | 0.011 µM | 0.042 µM | – | –
13 | Cc1cc(N2CCCNCC2)nc2ccc(NC(=O)COc3ccc(OC(F)(F)F)cc3)cc12 [Example 25, N-(2-[1,4]Diazepan-1-yl-4-methylquinolin-6-yl)-2-(4-trifluoromethoxyphenoxy)-acetamide] | 0.012 µM | 0.071 µM | – | –
14 | Cc1cc(N2CCC(N)CC2)nc2ccc(NC(=O)COc3ccc(Cl)cc3Cl)cc12 [Example 33, N-[2-(4-Amino-piperidin-1-yl)-4-methyl-quinolin-6-yl]-2-(2,4-dichloro-phenoxy)-acetamide] | 0.041 µM | 0.063 µM | – | –
15 | Cc1cc(N2CCN(CCO)CC2)nc2ccc(NC(=O)COc3ccc(OC(F)(F)F)cc3)cc12 [Example 38, N-{2-[4-(2-Hydroxy-ethyl)-piperazin-1-yl]-4-methyl-quinolin-6-yl}-2-(4-trifluoromethoxy-phenoxy)-acetamide] | 0.05 µM | 0.023 µM | – | –
16 | Cc1cc(NCCN(C(C)C)C(C)C)nc2ccc(NC(=O)COc3ccc(OC(F)(F)F)cc3)cc12 [Example 40, N-[2-(2-Diisopropylamino-ethylamino)-4-methyl-quinolin-6-yl]-2-(4-trifluoromethoxy-phenoxy)-acetamide] | 0.022 µM | – | – | –

Row | Compound | IC50 [1] | IC50 [2, 6] | Risk Group [4] | also measured
17 | Cc1cc(NCCN2CCOCC2)nc2ccc(NC(=O)COc3ccc(OC(F)(F)F)cc3)cc12 [Example 42, N-[4-Methyl-2-(2-morpholin-4-yl-ethylamino)-quinolin-6-yl]-2-(4-trifluoromethoxy-phenoxy)-acetamide] | 0.01 µM | 0.016 µM | – | –
18 | Cc1cc(NCC(C)(C)CN(C)C)nc2ccc(NC(=O)COc3ccc(OC(F)(F)F)cc3)cc12 [Example 45, N-[2-(3-Dimethylamino-2,2-dimethyl-propylamino)-4-methyl-quinolin-6-yl]-2-(4-trifluoromethoxy-phenoxy)-acetamide] | 0.021 µM | 0.19 µM | – | –
19 | CCN1CCCC1CNc1cc(C)c2cc(NC(=O)/C=C/c3ccc(OC(F)(F)F)cc3)ccc2n1 (stereo not drawn) [Example 62, (E)-N-{2-[(1-Ethyl-pyrrolidin-2-ylmethyl)-amino]-4-methyl-quinolin-6-yl}-3-(4-trifluoromethoxy-phenyl)-acrylamide] | 0.013 µM | 0.01 µM | – | –
20 | Cc1cc(OCCN(C)C)nc2ccc(NC(=O)COc3ccc(Cl)cc3Cl)cc12 [Example 76, 2-(2,4-Dichloro-phenoxy)-N-[2-(2-dimethylamino-ethoxy)-4-methyl-quinolin-6-yl]-acetamide] | – | – | – | IC50 [2]: 0.135 µM
21 | Cc1cc(N(C)CCN(C)C)nc2ccc(NC(=O)CCc3ccc(OC(F)(F)F)cc3)cc12 [Example 98, N-{2-[(2-Dimethylamino-ethyl)-methyl-amino]-4-methyl-quinolin-6-yl}-3-(4-trifluoromethoxy-phenyl)-propionamide] | 0.037 µM | 0.72 µM | – | –
22 | Cc1nc(N(C)CCCN(C)C)nc2ccc(NC(=O)COc3ccc(Cl)cc3Cl)cc12 [Example 137, 2(2,4-Dichlorophenoxy)N{2[(3-dimethylaminopropyl)methyl-amino]-4-methyl-quinazolin-6-yl}-acetamide] | 0.01 µM | 0.063 µM | – | –
23 | Cc1cc(N(C)CCN(C)C)nc2ccc(NC(=O)c3ccc(-c4ccc(C(F)(F)F)cc4)cc3)cc12 [Example 183, 4′-Trifluoromethyl-biphenyl-4-carboxylic acid {2-[(2-dimethylamino-ethyl)-methyl-amino]-4-methyl-quinolin-6-yl}-amide] | 0.063 µM | 0.474 µM | – | –
24 | CNCCC(Oc1ccc(C(F)(F)F)cc1)c1ccccc1 (stereo not drawn) [Fluoxetine] | – | – | 4 | –
25 | OCCN1CCN(CCCN2c3ccccc3Sc3ccc(C(F)(F)F)cc32)CC1 [Fluphenazine] | – | – | – | Ki [5]: 2.5 ± 0.57 µM
26 | O=C(CCCN1CCC(O)(c2ccc(Cl)cc2)CC1)c1ccc(F)cc1 [Haloperidole] | – | – | 1 | Ki [3]: 0.17 µM
27 | CN(C)CCCN1c2ccccc2CCc2ccccc21 [Imipramine] | – | – | 4 | –
28 | CC(=O)N1CCN(c2ccc(OCC3COC(Cn4ccnc4)(c4ccc(Cl)cc4Cl)O3)cc2)CC1 (stereo not drawn) [Ketoconazole] | – | – | 4 | –
29 | O=c1[nH]c2ccccc2n1C1CCN(CCCC(c2ccc(F)cc2)c2ccc(F)cc2)CC1 [Pimozide] | – | – | 1 | –
30 | Cc1nc2n(c(=O)c1CCN1CCC(c3noc4cc(F)ccc34)CC1)CCCC2 [Risperidone] | – | – | 2 | –
31 | CC(CN(C)C)CN1c2ccccc2CCc2ccccc21 (stereo not drawn) [Trimipramine] | – | – | 4 | Ki in μM ± S.D. (#) [3]: No effect at 10
